# Earlier results in patent US12296046B2, “Micro-emulsion containing creatine fatty-ester, method for preparing said micro-emulsion and uses thereof” (COMMISSARIAT À L'ÉNERGIE ATOMIQUE ET AUX ÉNERGIES …, priority 2018, dated 2025).
# System: CrT−/y mice
# Settings: 30 mg/kg, intracerebroventricular administration
smiles,measurement,value
"CCCCCCCCCCCCOC(=O)CN(C)C(=N)N [DCE, dodecyl creatine ester]",performance in the object recognition task,significantly improves the performance
